Source: the NIST ThermoML archive (doi:10.1021/je050416y)

Assay: xn = mol fraction of the nth substance listed
Settings: 101 kPa, Liquid; for mass density: Vibrating tube method

CC(C)CCO [3-methylbutan-1-ol] + CCO
Settings	kinematic viscosity, 308.15 K [m2/s]	kinematic viscosity, 313.15 K [m2/s]	kinematic viscosity, 318.15 K [m2/s]	kinematic viscosity, 323.15 K [m2/s]	mass density, 313.15 K [kg/m3]	mass density, 318.15 K [kg/m3]	mass density, 323.15 K [kg/m3]
x1 = 0.0268	–	–	–	–	773.2	769	764.6
x1 = 0.0549	–	–	–	–	774.2	770	765.7
x1 = 0.0845	–	–	–	–	775.2	771	766.7
x1 = 0.0915	1.17e-06	1.07e-06	9.8e-07	8.72e-07	–	–	–
x1 = 0.1156	–	–	–	–	776.2	772	767.8
x1 = 0.1484	–	–	–	–	777.2	773.1	768.9
x1 = 0.1753	1.22e-06	1.12e-06	1.03e-06	9.13e-07	–	–	–
x1 = 0.183	–	–	–	–	778.2	774.1	769.9
x1 = 0.2524	1.27e-06	1.17e-06	1.07e-06	9.53e-07	–	–	–
x1 = 0.2584	–	–	–	–	780.3	776.3	772.1
x1 = 0.3235	1.33e-06	1.22e-06	1.12e-06	9.96e-07	–	–	–
x1 = 0.3433	–	–	–	–	782.4	778.4	774.3
x1 = 0.3894	1.4e-06	1.28e-06	1.17e-06	1.05e-06	–	–	–
x1 = 0.4395	–	–	–	–	784.6	780.6	776.6
x1 = 0.4505	1.47e-06	1.35e-06	1.23e-06	1.1e-06	–	–	–
x1 = 0.5495	–	–	–	–	786.7	782.8	778.9
x1 = 0.5605	1.65e-06	1.51e-06	1.37e-06	1.23e-06	–	–	–
x1 = 0.6567	1.86e-06	1.69e-06	1.54e-06	1.39e-06	–	–	–
x1 = 0.6765	–	–	–	–	788.9	785.1	781.2
x1 = 0.7416	2.1e-06	1.9e-06	1.72e-06	1.55e-06	–	–	–
x1 = 0.817	2.37e-06	2.13e-06	1.92e-06	1.72e-06	–	–	–
x1 = 0.8247	–	–	–	–	791	787.3	783.4
x1 = 0.8844	2.66e-06	2.38e-06	2.13e-06	1.9e-06	–	–	–
x1 = 0.9451	2.98e-06	2.66e-06	2.36e-06	2.09e-06	–	–	–
x1 = 1	3.33e-06	2.94e-06	2.59e-06	2.29e-06	793.2	789.5	785.7
